Test results from patent US11415579B2, “Assay for measuring a rate of reaction between a target and a ligand candidate” (Imperial College Innovations Ltd., priority 2016, dated 2022).

Assays:
[1] = Kinetic thiol consumption assay with model thiol glutathione; assay type: physicochemical; conditions: Protein: Glutathione; cysteine position NA; in h-1
Method: (§1) A library of 120 acrylamides was screened against a) human cyclin-dependent kinase 2 (Cdk2, which contains one surface exposed cysteine residue—C177), prepared by cloning cDNA into the pRSETA bacterial expression vector to generate a poly-histidine tagged Cdk2 fusion that was purified from E. coli using standard techniques, and b) a model thiol (specific details are given below). The structures of these 120 acrylamides are set out in Table 1, above.
(§2) To wells containing 150 μL thiol (Cdk2 or model thiol) (5 μM) in degassed phosphate buffer (pH 8) was added immobilized TCEP beads (2% v/v).
(§3) After incubation of the fluorescence plates for 1 hour at room temperature, fluorescence measurements (excitation/emission of 380/470 nm) were taken on a PerkinElmer EnVision multilabel plate reader and processed with EnVision Workstation version 1.12.
(§4) Fluorescence measurements were normalized against a DMSO/thiol only control and plotted against time.
(§5) Rate constants were calculated using GraphPad software Prism version 6 by fitting a first order exponential decay to the data. The rate constant for each acrylamide with Cdk2 was divided by the rate constant for that fragment with the model thiol to provide the rate enhancement for each ligand candidate.
The model thiol in Example 1 is glutathione (GSH). Hits were defined as fragments where kCdk2/kGSH>5.8 (empirically determined as 3 standard deviations over the mean).

[2] = molecular target: T1, human cyclin-dependent kinase 2 (Cdk2) (Homo sapiens, UniProt P24941); assay: Kinetic thiol consumption assay with wild type Cdk2 (C177); assay type: binding; parameters: key to Rate enhancement, Cdk2 WT: k(Cdk2) divided by k(model thiol); conditions: for Rate enhancement, Cdk2 WT: no additional mutations; for Rate constant with Cdk2 WT: Protein: Cdk2, cysteine position WT, in h^-1
T1 construct: poly-histidine; made in house; host or cells: E. coli
Method: as §1, §2, §3, §4, §5

Cdk2(C177A, F80C) = molecular target: T2, Cdk2(C177A, F80C) (Homo sapiens, UniProt P24941, C177A/F80C); assay: Kinetic thiol consumption assay with Cdk2 mutant F80C, incl. kobs versus concentration (Kd, k2); assay type: binding; parameters: key to Rate enhancement, Cdk2 F80C: Cdk2 rate constant divided by model-thiol rate constant; conditions: additional mutation C177A; for Rate constant with Cdk2 F80C: Protein: Cdk2, cysteine position F80C, in h^-1
T2 construct: poly-histidine; made in house; host or cells: E. coli
Method: Therefore the assay can be used to calculate both k2 and Kd by experimentally determining kobs at a suitable range of ligand candidate concentrations. Typically Kd and k2 would then be determined by fitting a hyperbolic curve to a plot of kobs against ligand candidate concentration (FIG. 9).
as §2, §3, §4, §5
(§6) A further set of set of additional Cdk2 mutants were screened, all containing the C177A mutation and therefore with only one cysteine on the surface: • F80C (without the K278C mutation) • H71C • S276C • N272 • T182C • R122C • S181C
(§7) Mutations were introduced by site-directed mutagenesis and the resulting cDNA was cloned into the pRSETA bacterial expression vector to generate a poly-histidine tagged Cdk2 fusion that was purified from E. coli using standard techniques.
Rate constants were calculated as described in the methodology section of Examples 1 and 2.

Cdk2(H71C) (C177A) = molecular target: T3, Cdk2(H71C) (C177A) (Homo sapiens, UniProt P24941, C177A/H71C); assay: Kinetic thiol consumption assay with Cdk2 mutant H71C; assay type: binding; parameters: key to Rate enhancement, Cdk2 H71C: rate constant with Cdk2 ÷ rate constant with model thiol (fold); conditions: additional mutation C177A; for Rate constant with Cdk2 H71C: Protein: Cdk2, cysteine position H71C, in h^-1
T3 construct: poly-histidine; made in house; host or cells: E. coli
Method: as §2, §3, §4, §5, §6, §7

Cdk2(S276C) (C177A) = molecular target: T4, Cdk2(S276C) (C177A) (Homo sapiens, UniProt P24941, C177A/S276C); assay: Kinetic thiol consumption assay with Cdk2 mutant S276C; assay type: binding; parameters: key to Rate enhancement, Cdk2 S276C: rate constant with Cdk2 ÷ rate constant with model thiol (fold); conditions: additional mutation C177A; for Rate constant with Cdk2 S276C: Protein: Cdk2, cysteine position S276C, in h^-1
T4 construct: poly-histidine; made in house; host or cells: E. coli
Method: as §2, §3, §4, §5, §6, §7

Cdk2(N272C) (C177A) = molecular target: T5, Cdk2(N272C) (C177A) (Homo sapiens, UniProt P24941, C177A/N272C); assay: Kinetic thiol consumption assay with Cdk2 mutant N272C; assay type: binding; parameters: key to Rate enhancement, Cdk2 N272: rate constant with Cdk2 ÷ rate constant with model thiol (fold); conditions: for Rate enhancement, Cdk2 N272: Cdk2 N272, additional mutation C177A; for Rate constant with Cdk2 N272C: Protein: Cdk2, cysteine position N272C, additional mutation C177A, in h^-1
T5 construct: poly-histidine; made in house; host or cells: E. coli
Method: as §2, §3, §4, §5, §6, §7

Cdk2(T182C) (C177A) = molecular target: T6, Cdk2(T182C) (C177A) (Homo sapiens, UniProt P24941, C177A/T182C); assay: Kinetic thiol consumption assay with Cdk2 mutant T182C; assay type: binding; parameters: key to Rate enhancement, Cdk2 T182C: rate constant with Cdk2 ÷ rate constant with model thiol (fold); conditions: additional mutation C177A; for Rate constant with Cdk2 T182C: Protein: Cdk2, cysteine position T182C, in h^-1
T6 construct: poly-histidine; made in house; host or cells: E. coli
Method: as §2, §3, §4, §5, §6, §7

Cdk2(R122C) (C177A) = molecular target: T7, Cdk2(R122C) (C177A) (Homo sapiens, UniProt P24941, C177A/R122C); assay: Kinetic thiol consumption assay with Cdk2 mutant R122C; assay type: binding; parameters: key to Rate enhancement, Cdk2 R122C: rate constant with Cdk2 ÷ rate constant with model thiol (fold); conditions: additional mutation C177A; for Rate constant with Cdk2 R122C: Protein: Cdk2, cysteine position R122C, in h-1
T7 construct: poly-histidine; made in house; host or cells: E. coli
Method: as §2, §3, §4, §5, §6, §7

Cdk2(S181C) (C177A) = molecular target: T8, Cdk2(S181C) (C177A) (Homo sapiens, UniProt P24941, C177A/S181C); assay: Kinetic thiol consumption assay with Cdk2 mutant S181C; assay type: binding; parameters: key to Rate enhancement, Cdk2 S181C: rate constant with Cdk2 ÷ rate constant with model thiol (fold); conditions: additional mutation C177A; for Rate constant with Cdk2 S181C: Protein: Cdk2, cysteine position S181C, in h^-1
T8 construct: poly-histidine; made in house; host or cells: E. coli
Method: as §2, §3, §4, §5, §6, §7

Compound	Rate enhancement, Cdk2 WT [2]	Rate constant with Cdk2 WT [2]	Rate enhancement, Cdk2 F80C (Cdk2(C177A, F80C))	Rate constant with Cdk2 F80C (Cdk2(C177A, F80C))	Rate enhancement, Cdk2 H71C (Cdk2(H71C) (C177A))	Rate enhancement, Cdk2 S276C (Cdk2(S276C) (C177A))	Rate constant with Cdk2 S276C (Cdk2(S276C) (C177A))	Rate enhancement, Cdk2 N272 (Cdk2(N272C) (C177A))	Rate constant with Cdk2 N272C (Cdk2(N272C) (C177A))	Rate enhancement, Cdk2 T182C (Cdk2(T182C) (C177A))	Rate constant with Cdk2 T182C (Cdk2(T182C) (C177A))	Rate enhancement, Cdk2 R122C (Cdk2(R122C) (C177A))	Rate constant with Cdk2 R122C (Cdk2(R122C) (C177A))	Rate enhancement, Cdk2 S181C (Cdk2(S181C) (C177A))	Rate constant with Cdk2 S181C (Cdk2(S181C) (C177A))	Rate constant with Cdk2 H71C (Cdk2(H71C) (C177A))	Rate constant with Glutathione [1]
C=CC(=O)N(CC(=O)N1CCCC1)CC1CCCO1 (centres unmarked) [CA-080/239]	0.2317	0.00279	0.08364	0.001007	0	0.2885	0.003474	0.2756	0.003318	0.9651	0.01162	0.173	0.002083	0.1377	0.001658	–	0.01204
C=CC(=O)N(c1cccc2ncccc12)C1CCC1 [CA-032/228]	1.405	0.02299	2.232	0.03651	15.36	1.851	0.03029	3.007	0.04919	14.8	0.2422	1.534	0.02509	1.043	0.01707	0.2513	0.01636
CC1CN(C(=O)CCl)CC(C)O1 (centres unmarked) [EN012]	1.086	0.2933	0	–	0.03607	0.5904	0.1594	0.1055	0.02849	0.3161	0.08536	0.02811	0.00759	0.067	0.01809	0.009738	0.27

More lines, main results first:

Rate enhancement, Cdk2 WT [2]	Rate constant with Cdk2 WT [2]	Rate enhancement, Cdk2 F80C (Cdk2(C177A, F80C))	Rate constant with Cdk2 F80C (Cdk2(C177A, F80C))	Rate enhancement, Cdk2 H71C (Cdk2(H71C) (C177A))	Rate enhancement, Cdk2 S276C (Cdk2(S276C) (C177A))	Rate constant with Cdk2 S276C (Cdk2(S276C) (C177A))	Rate enhancement, Cdk2 N272 (Cdk2(N272C) (C177A))	Rate constant with Cdk2 N272C (Cdk2(N272C) (C177A))	Rate enhancement, Cdk2 T182C (Cdk2(T182C) (C177A))	Rate constant with Cdk2 T182C (Cdk2(T182C) (C177A))	Rate enhancement, Cdk2 R122C (Cdk2(R122C) (C177A))	Rate constant with Cdk2 R122C (Cdk2(R122C) (C177A))	Rate enhancement, Cdk2 S181C (Cdk2(S181C) (C177A))	Rate constant with Cdk2 S181C (Cdk2(S181C) (C177A))	Rate constant with Cdk2 H71C (Cdk2(H71C) (C177A))	Compound	Rate constant with Glutathione [1]
1.315	0.002918	7.7693E−12	1.724E−14	12.95	74.76	0.1659	5.777	0.01282	34.33	0.07618	0.411	0.000912	4.709	0.01045	0.02873	O=C(c1ccccc1)[C@@H]1O[C@H]1c1ccccc1 [EN006]	0.002219
2.833	1.708	0.00861	0.005192	0.1025	0.9531	0.5747	0.198	0.1194	4.219	2.544	0.3799	0.2291	0.3144	0.1896	0.06183	O=S1(=O)C=CC(Br)C1 (centres unmarked) [EN010]	0.603
